target: T1, Human CXCR3 (N-delta 4) (Homo sapiens, UniProt P49682); test: Human CXCR3 (N-delta 4) scintillation proximity assay (SPA), [125I] IP-10 binding to Ba/F3-hCXCR3 membranes; settings: IC50 rating; 25 pM [125I] IP-10, membranes of Ba/F3 cells expressing human CXCR3 (N-delta 4)
T1 construct: CD8 leader (N); Flag tag; expressed in transfected cells; membranes prepared
T1 sequence (P49682 5-368 limits assumed): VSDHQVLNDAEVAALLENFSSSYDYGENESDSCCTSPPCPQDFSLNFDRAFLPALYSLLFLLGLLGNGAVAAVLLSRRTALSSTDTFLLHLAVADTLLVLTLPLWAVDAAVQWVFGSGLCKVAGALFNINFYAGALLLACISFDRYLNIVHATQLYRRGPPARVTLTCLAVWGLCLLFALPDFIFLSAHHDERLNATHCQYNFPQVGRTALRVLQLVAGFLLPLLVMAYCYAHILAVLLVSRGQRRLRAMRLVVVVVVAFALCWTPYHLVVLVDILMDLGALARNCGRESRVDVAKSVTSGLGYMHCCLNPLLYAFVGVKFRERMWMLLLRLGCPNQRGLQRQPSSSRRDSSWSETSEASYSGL
Text: The inventive compounds can readily be evaluated to determine activity at The CXCR3 receptors by known methods, such as, for example, Development of Human CXCR3 (N-delta 4) Binding Assay.
Cloning and Expression of Human CXCR3 (N-delta 4):
The DNA encoding human CXCR3 was cloned by PCR using human genomic DNA (Promega, Madison, Wis.) as a template. The PCR primers were designed based on the published sequence of human orphan receptor GPR9 (1) with incorporated restriction sites, a Kozak consensus sequence, CD8 leader and Flag tag. The PCR product was subcloned into the mammalian expression vector pME18Sneo, a derivative of the SR-alpha expression vector (designated as pME18Sneo-hCXCR3 (N-delta 4).
IL-3-dependent mouse pro-B cells Ba/F3 were transfected by electroporation in 0.4 ml Dulbecco's PBS containing 4×10^6 cells with 20 μg of pME18Sneo-hCXCR3 (N-delta 4) plasmid DNA. Cells were pulsed at 400 Volts, 100 OHMs, 960 μFd. The transfected cells were under selection with 1 mg/ml G418 (Life Technologies, Gaithersburg, Md.). G418-resistant Ba/F3 clones were screened for CXCR3 expression by specific binding of [^125I] IP-10 (NEN Life Science Products, Boston, Mass.).
Preparation of Ba/F3-hCXCR3 (N-delta 4) Membranes
Ba/F3 cells expressing human CXCR3 (N-delta 4) were pelleted and resuspended in the lysis buffer containing 10 mM HEPES, pH 7.5 and Complete® protease inhibitors (1 tablet per 100 ml) (Boehringer Mannheim, Indianapolis, Ind.) at a cell density of 20×10^6 cells per ml. After 5 minutes incubation on ice, cells were transferred to 4639 cell disruption bomb (Parr Instrument, Moline, Ill.) and applied with 1,500 psi of nitrogen for 30 minutes on ice. Large cellular debris was removed by centrifugation at 1,000×g. Cell membrane in the supernatant was sedimented at 100,000×g. The membrane was resuspended in the lysis buffer supplemented with 10% sucrose and stored at −80° C. Total protein concentration of the membrane was determined by BCA method from Pierce (Rockford, Ill.).
Human CXCR3 (N-delta 4) Scintillation Proximity Assay (SPA)
For each assay point, 2 μg of membrane was preincubated for 1 hr with 300 μg wheat germ agglutinin (WGA) coated SPA beads (Amersham, Arlington Heights, Ill.) in the binding buffer (50 mM HEPES, 1 mM CaCl2, 5 mM MgCl2, 125 mM NaCl, 0.002% NaN3, 1.0% BSA) at room temperature. The beads were spun down, washed once, resuspended in the binding buffer and transferred to a 96-well Isoplate (Wallac, Gaithersburg, Md.). 25 pM of [^125I] IP-10 with tested compounds in a series of titration were added to start the reaction. After 3 hr reaction at room temperature, the amount of [^125I] IP-10 bound to the SPA beads was determined with a Wallac 1450 Microbeta counter.
The Ki values for the various example compounds of the present invention are given in the afore-mentioned Table 1. From these values, it would be apparent to the skilled artisan that the compounds of the invention have excellent utility CXCR3 antagonists.

IC50	Structure (SMILES)
< 25 nM	CC[C@H]1CN(c2ncc(C(=O)NC(C)(C)C)nc2C)CCN1C1CCN(C(=O)c2ccc(Cl)nc2N)CC1 [compound 170]
> 100 nM	CC[C@H]1CN(c2nc(N)c(C(=O)NCCO)nc2Cl)CCN1C1CCN(Cc2ccc(C#N)nc2)CC1 [compound 72]
< 25 nM	CC[C@H]1CN(c2nc(N)c(C(=O)NCCO)nc2Cl)CCN1C1CCN(C(=O)c2cc(F)c(Cl)nc2Cl)CC1 [compound 22]
25 to 100 nM	CC[C@H]1CN(c2nc(N)c(C(=O)NCCO)nc2Cl)CCN1C1CCN(Cc2ccc(C(F)(F)F)nc2)CC1 [compound 70]
25 to 100 nM	CC[C@H]1CN(c2nc(N)c(C(=O)OC)nc2Cl)CCN1C1CCN(C(=O)c2ccc(Cl)nc2N)CC1 [Compound No. 58]
< 25 nM	CC[C@H]1CN(c2ncc(C(=O)NC(C)C)nc2C(F)(F)F)CCN1C1CCN(C(=O)c2ccc(Cl)nc2N)CC1 [compound 179]
> 100 nM	CC[C@H]1CN(c2nc(N)c(C(=O)NCCO)nc2Cl)CCN1C1CCN(C(=O)c2ccc(C(N)=O)nc2N)CC1 [compound 106]
< 25 nM	CC[C@H]1CN(c2nc(N)c(C(=O)Nc3ccc(Cl)cc3)nc2Cl)CCN1C1CCN(C(=O)c2ccc(Cl)nc2N)CC1 [compound 149]
< 25 nM	CC[C@H]1CN(c2nc(N)c(C(=O)N[C@@H]3CCC[C@H]3O)nc2Cl)CCN1C1CCN(C(=O)c2ccc(Cl)nc2N)CC1 [compound 18]
25 to 100 nM	CC[C@H]1CN(c2nc(N)c(C(=O)NCCO)nc2Cl)CCN1C1CCN(C(=O)c2ccc(C(F)(F)F)nc2N)CC1 [compound 63]
< 25 nM	CC[C@H]1CN(c2ncc(C(=O)NC)nc2C(F)(F)F)CCN1C1CCN(C(=O)c2ccc(Cl)nc2N)CC1 [compound 173]
< 25 nM	CC[C@H]1CN(c2nc(N)c(C(=O)NC3CC3)nc2C)CCN1C1CCN(C(=O)c2ccc(Cl)nc2N)CC1 [Compound No. 157]
< 25 nM	CC[C@H]1CN(c2ncc(C(N)=O)nc2C)CCN1C1CCN(C(=O)c2ccc(Cl)nc2N)CC1 [compound 129]
< 25 nM	CC[C@H]1CN(c2nc(N)c(C(=O)Nc3ccon3)nc2Cl)CCN1C1CCN(C(=O)c2ccc(Cl)nc2N)CC1 [compound 33]
< 25 nM	CC[C@H]1CN(c2nc(N)c(C(=O)NCC(F)(F)F)nc2Cl)CCN1C1CCN(C(=O)c2ccc(Cl)nc2N)CC1 [compound 12]
< 25 nM	CC[C@H]1CN(c2nc(N)c(C(N)=O)nc2Cl)CCN1C1CCN(C(=O)c2cc(F)c(Cl)nc2N)CC1 [compound 41]
> 100 nM	CC[C@H]1CN(c2nc(N)c(C(=O)NCCO)nc2Cl)CCN1C1CCN(C(=O)c2nccnc2N)CC1 [compound 117]
< 25 nM	CC[C@H]1CN(c2ncc(C(=O)NC3CC3)nc2C)CCN1C1CCN(C(=O)c2ccc(C(F)(F)F)nc2N)CC1 [compound 176]
25 to 100 nM	CC[C@H]1CN(c2nc(N)c(C(N)=O)nc2Cl)CCN1C1CCN(C2OC(C(=O)N(C)C)c3cc(Cl)ccc32)CC1 (stereo partly drawn) [compound 151]
< 25 nM	CC[C@H]1CN(c2nc(N)c(C(=O)NCC3(O)CC3)nc2Cl)CCN1C1CCN(C(=O)c2ccc(Cl)nc2N)CC1 [compound 32]
25 to 100 nM	CC[C@H]1CN(c2nc(N)c(C(=O)NN)nc2Cl)CCN1C1CCN(C(=O)c2cnc(Cl)c(Cl)c2)CC1 [compound 71]
> 100 nM	CC[C@H]1CN(c2nc(N)c(C(=O)Nc3nccc(=O)[nH]3)nc2Cl)CCN1C1CCN(C(=O)c2ccc(Cl)nc2N)CC1 [compound 83]
> 100 nM	CC[C@H]1CN(c2nc(N)c(C(=O)NC(=N)n3cccn3)nc2Cl)CCN1C1CCN(C(=O)c2ccc(Cl)nc2N)CC1 [compound 101]
25 to 100 nM	CC[C@H]1CN(c2nc(N)c(C(=O)NCCO)nc2Cl)CCN1C1CCN(C(=O)c2ccc(OC)nc2N)CC1 [compound 133]

IC50	Structure (SMILES)
< 25 nM	CC[C@H]1CN(c2nc(N)c(C(=O)NCCNS(C)(=O)=O)nc2Cl)CCN1C1CCN(Cc2ccc(Cl)nc2N)CC1 [compound 34]
< 25 nM	CC[C@H]1CN(c2nc(N)c(C(N)=O)nc2Cl)CCN1C1CCN(C(=O)c2ccc(Cl)nc2N)CC1 [compound 35]
25 to 100 nM	CC[C@H]1CN(c2nc(NCc3ccc(F)c(F)c3)c(C(=O)OC)nc2Cl)CCN1C1CCN(C(=O)c2ccc(Cl)nc2N)CC1 [compound 60]
< 25 nM	CC[C@H]1CN(c2nc(N)c(C(=O)OC)nc2Cl)[C@H](C)CN1C1CCN(C(=O)c2ccc(Cl)nc2N)CC1 [compound 172]
25 to 100 nM	CC[C@H]1CN(c2nc(N)c(C(=O)NCCS(C)(=O)=O)nc2Cl)CCN1C1CCN(C(=O)c2ccc(Cl)nc2N)CC1 [compound 67]
25 to 100 nM	CC[C@H]1CN(c2nc(N)c(C(N)=O)nc2Cl)CCN1C1CCN(C2OC(C(=O)N(C)C)c3cc(Cl)ccc32)CC1 (stereo partly drawn) [compound 147]
< 25 nM	CC[C@H]1CN(c2ncc(C(=O)NC3CC3)nc2C(F)(F)F)CCN1C1CCN(C(=O)c2ccc(Cl)nc2N)CC1 [compound 178]
> 100 nM	CC[C@H]1CN(c2nc(N)c(C(=O)NN)nc2Cl)CCN1C1CCN(C(=O)c2cc(F)c(N)nc2Cl)CC1 [compound 73]
> 100 nM	CC[C@H]1CN(c2nc(NCC3CC3)c(C(N)=O)nc2Cl)CCN1C1CCN(C(=O)c2ccc(Cl)nc2N)CC1 [compound 84]
< 25 nM	CCNC(=O)c1nc(C)c(N2CCN(C3CCN(C(=O)c4ccc(Cl)nc4N)CC3)[C@@H](CC)C2)nc1N [Compound No. 156]
< 25 nM	CC[C@H]1CN(c2nc(N)c(C(N)=O)nc2Cl)CCN1C1CCN(Cc2ccc(Cl)nc2N)CC1 [compound 31]
> 100 nM	CC[C@H]1CN(c2nc(N)c(C(=O)N/C(N)=N/C#N)nc2Cl)CCN1C1CCN(C(=O)c2ccc(Cl)nc2N)CC1 [compound 90]
< 25 nM	CC[C@H]1CN(c2ncc(C(=O)NC(C)C)nc2C)CCN1C1CCN(C(=O)c2ccc(Cl)nc2N)CC1 [compound 123]
> 100 nM	CC[C@H]1CN(c2nc(N)c(C(N)=O)nc2Cl)CCN1C1CCN(Cc2ccc(Cl)c3nc(C(F)(F)F)[nH]c23)CC1 [compound 142]
> 100 nM	CCOC(=O)C1(NC(=O)c2nc(Cl)c(N3CCN(C4CCN(C(=O)c5ccc(Cl)nc5N)CC4)[C@@H](CC)C3)nc2N)CC1 [compound 76]
< 25 nM	CC[C@H]1CN(c2nc(N)c(C(=O)N[C@@H]3CC[C@@H]3O)nc2Cl)CCN1C1CCN(C(=O)c2ccc(Cl)nc2N)CC1 [compound 9]
< 25 nM	CC[C@H]1CN(c2nc(N)c(C(N)=O)nc2Cl)[C@H](C)CN1C1CCN(C(=O)c2ccc(Cl)nc2N)CC1 [compound 167]
< 25 nM	CC[C@H]1CN(c2nc(N)c(C(=O)NC)nc2Cl)CCN1C1CCN(C(=O)c2ccc(Cl)nc2)CC1 [compound 44]
> 100 nM	CC[C@H]1CN(c2nc(N)c(C(N)=O)nc2Cl)CCN1C1CCN(Cc2ccc(Cl)c3nn[nH]c23)CC1 [compound 153]
< 25 nM	CC[C@H]1CN(c2nc(N)c(C(=O)NC[C@@H](C)O)nc2Cl)CCN1C1CCN(C(=O)c2ccc(Cl)nc2N)CC1 [compound 8]
> 100 nM	CC[C@H]1CN(c2ncc(C(N)=O)nc2C)CCN1C1CCN(C(=O)c2ccc(C)nc2N)CC1 [compound 136]
< 25 nM	CC[C@H]1CN(c2ncc(C(=O)NC(C)C)nc2Cl)CCN1C1CCN(C(=O)c2ccc(Cl)nc2N)CC1 [compound 118]
> 100 nM	CC[C@H]1CN(c2nc(N)c(C(N)=O)nc2Cl)CCN1C1CCN(Cc2ccc(Cl)n3ccnc23)CC1 [compound 75]
> 100 nM	CC[C@H]1CN(c2nc(NC(=O)N(C)C)c(C(=O)NC)nc2Cl)CCN1C1CCN(C(=O)c2ccc(Cl)nc2N)CC1 [compound 77]

Source: patent publication US7879838B2, “Heteroaryl substituted pyrazinyl-piperazine-piperidines with CXCR3 antagonist activity” (Schering Corporation, priority 2005, dated 2011)
